This assay concerns COX-2 expression. Kind of assay: COX-2 immunoblot (Western blot) in RAW 264.7 cells. The assay is classed as cell-based, murine. The procedure:
Cell culture—RAW 264.7 cells (a murine macrophage-like cell line, ATCC TIB-71), 293T cells (a human embryonic kidney cell line, provided by Sam Lee, Beth Israel Hospital. Boston, Mass.), and HT-29 cells (a human colon adenocarcinoma cell line, ATCC HTB-38) were cultured in Dulbecco's modified Eagle's medium (DMEM) containing 10% (v/v) heat-inactivated fetal bovine serum (FBS, Intergen) and 100 units/ml Penicillin and […] Streptomycin (GIBCO-BRL) at 37° C. in a 5% CO2/air environment. Cells (2×10^6) were plated in 60-mm dishes and cultured for an additional 18 hours to allow the number of cells to approximately double. Cells were maintained in serum-poor (0.25% FBS) medium for another 18 hours prior to the treatment with indicated reagents.
Preparation of fatty acids-albumin complexes—All fatty acids were solubilized in ethanol, and then combined with fatty acid-free and low-endotoxin BSA at a molar ratio of 10:1 (fatty acid: albumin) in serum-poor medium (0.25% FBS). Fatty acids-albumin complex solution was freshly prepared prior to each experiment.
Sodium dodecyl sulfate-polyacrylamide gel electrophoresis (SDS-PAGE) and immunoblotting—These procedures were performed as previously described in D. Hwang et al., “Expression of mitogen-inducible cyclooxygenase induced by lipopolysaccharide: mediation through both mitogen-activated protein kinase and NF-kappaB signaling pathways in macrophages,” Biochem. Pharmacol., vol. 54, pp. 87-96 (1997). Briefly, solubilized proteins were subjected to 8% SDS-PAGE for COX-2, iNOS, IL- 1α and GAPDH immunoblot analyses. Following electrophoresis, the gel was transferred to a PVDF membrane and the membrane was blocked to prevent non-specific binding of antibodies in TBS-T [20 mM Tris HCl, 137 mM NaCl, 0.05% (v/v) Tween 20, pH 7.6] containing 5% non-fat dried milk (Carnation). Immunoblotting was performed using respective polyclonal antibodies followed by incubation with anti-rabbit IgG coupled to horseradish peroxidase. The membrane was exposed on an X-ray film (Kodak) using ECL western blot detection reagents (Amersham).
After 11 h, cell lysates were analyzed by COX-2, iNOS, IL-1α, or GAPDH immunoblot using a Western blot analysis.
The cell lysates were analyzed by COX-2 or GAPDH immunoblot.
RAW 264.7 cells were pretested with various concentrations (5, 10, 20, and 50 μM) of docosahexaenoic acid (C22:6n-3) for 3 hours, and then stimulated with LPS (100 ng/ml) for 8 hours and analyzed by COX-2, iNOS, IL-1 a or GAPDH immunoblot.
Cells stably transfected with NFκB(5×) or COX-2 promoter reporter genes were pretreated with various concentrations of each fatty acid for 3 hrs. Cells were then treated with LPS (200 ng/ml). After 8 hrs, cell lysates were prepared and luciferase activities were determined. Data are expressed as a percentage of LPS treatment alone. The results for NFκB and COX-2 expression are given in FIGS. 8A and 8B, respectively. The values are mean±SEM (n=3) of RLA, relative luciferase activity. In FIG. 8C, the cells were pretreated with DHA (20 μM) or C12:0 (75 μM) for 3 hrs and further stimulated with LPS (200 ng/ml for DHA; 1 ng/ml for C12:0). After 8 hr, cell lysates were analyzed by COX-2 and actin immunoblotting.
A general note: A western blot detects proteins with antibodies after separation by electrophoresis.

Here are results for one compound from US20030032674A1, “Use of unsaturated fatty acids to treat severe inflammatory diseases” (priority 2001, published 2003).

Take `CCCCCCCCCCCC(=O)O` [lauric acid]: the “effect on LPS-induced COX-2 expression (immunoblot)” value (DHA 20 μM or C12:0 75 μM 3 hrs, LPS 200 ng/ml for DHA, 1 ng/ml for C12:0, 8 hr) is reported as “potentiated”. Besides, the “COX-2 expression induced by fatty acid (immunoblot)” value (RAW 264.7, lauric acid 1, 10, 50, 100 μM with BSA, 11 h) is given as “induced”.
